# Test results reported in US12691124B2, “Methods of controlling and improving brain health” (ICAHN SCHOOL OF MEDICINE AT MOUNT SINAI, priority 2019, dated 2026).
# Columns and labels:
# primary microglia = assay: Gene expression in primary microglia treated with IBET858; assay type: cell-based, mouse
# Procedure: Primary Microglia Culture. Postnatal day 0 C57/Bl6 mice were decapitated in ice cold HBSS. The forebrain was rapidly dissected and treated as above in order to generate a single cell suspension. 60,000 cells per cm2 were seeded in vented, Poly-D-lysine coated flasks. Mixed glial cultures were maintained in DMEM containing 10% FBS and 1% penicillin/streptomycin for 3 weeks. After three weeks, microglia were isolated by shaking the mixed glial cultures for 4 hours at 360 rpm and re-plated at density on 100,0000 cells/cm2. Cultures were given 24 hours to settle before treatment. Cultures were pre-treated for 30 minutes with either DMSO (0.01%) or 1 uM IBET858. After 30 minutes, LPS (100 ng/ml) was added to the cultures. RNA was isolated with Trizol LS according to the manufacturer's recommendations after 1, 4 and 12 hours of LPS treatment.
# To test the role of BET proteins in microglial gene expression, primary microglia cultures from mouse forebrain were treated with the brain-permeable BET inhibitors IBET858 (1 μM) for 1, 4, or 12 hours (FIG. 3A). Because loss of BET activity in macrophages negatively impacts differentiation and proliferation189, microglia identity genes were examined to understand if microglial lineage is regulated by BET proteins (FIG. 3C). Hexb, Fcrls, and Fcer1g expression was unaffected by IBET858 indicating microglial differentiation is unaffected.
# primary cortical neurons [1] = assay: Seahorse mitochondrial stress test; assay type: cell-based, mouse
# Procedure: Seahorse Mitochondrial Stress Test. In this assay, two fluorescent probes that detect the concentration of oxygen or protons are added to the culture media. Cellular metabolism causes rapid changes in the concentration of these molecules in the media which can be detected by changes in sensor fluorescence. The oxygen consumption rate (OCR) indicates mitochondrial respiration and the extracellular acidification rate (ECAR) is largely due to glycolysis. Certain pathways can be analyzed by the sequential addition of inhibitors to the media and measuring ensuing changes to the OCR and ECAR. First baseline readings are measured to give an understanding of basal metabolic rates. Then the last step of oxidative phosphorylation, the ATP synthase, is inhibited by oligomycin to determine how much oxygen is being used for ATP production. FCCP is next added to decouple the electron transport chain from the ATP synthase by increasing proton permeability of the membrane which drives oxidative phosphorylation to its maximum. Lastly, complex I is inhibited by rotenone to completely shut down mitochondrial respiration. Any oxygen that is consumed after rotenone is due to other cellular processes such as fatty acid metabolism. On the day of the assay, cultures were washed times with artificial CSF (aCSF) [120 mM NaCl, 3.5 mM KCl, 1.3 mM CaCl2, 1 mM MgCl2, 0.4 mM KH2PO4, 5 mM HEPES, 0.4% BSA, 10 mM Sodium-pyruvate, 15 mM Glucose], and incubated at 37° C. without CO2 for one hour prior to assay. Oxygen Consumption rate (OCR) was measured using the Seahorse XFe24 Analyzer (Agilent), under basal conditions and after the sequential addition of […] [carbonyl cyanide p-(trifluoromethoxy) phenylhydrazone], […]. Metrics were calculated according to the following equations. All values were calculated per well and normalized to cell number for each experiment. Each experiment was normalized to the average of all controls across all experiments (n=3) performed.
# To understand if this was the case, the major energetic pathway in neurons, mitochondrial respiration, after BET inhibition was assessed using Seahorse technology. […] In addition to lower mitochondrial activity, proton leak which contributes to the production of reactive oxygen species (ROS) is lower after BET inhibition. Because increased ROS levels are detrimental to neuronal health, lower ROS production could also increase neuronal survival after BET inhibition.
# Glycolysis also contributes to neuronal metabolism and several key glycolytic metabolites (Fructose 6-phosphate, Glucose-6-phosphate, Phosphoenolpyruvate) were decreased after IBET858. […] Additionally, the decreased maximal responses indicate that this metabolic state is relatively stable.
# primary cortical neurons [2] = assay: Autophagy, protein content and cell size in neurons (LC3II/LC3I, BCA, Map2+ area); assay type: cell-based, mouse
# Procedure: Immunoblotting. Mice were anesthetized with CO2 followed by decapitation, and the region of interest was rapidly dissected and frozen in liquid nitrogen and stored at −80° C. until further processing. Samples were sonicated at 4° C. in 1% SDS solution supplemented with protease, Trichostatin A (500 ng/ml) and PhosStop phosphatase inhibitor (Roche, Switzerland), and boiled for ten minutes. The protein concentration was determined using a BCA protein assay kit (ThermoFisherScientific, USA) according to the manufacturer's instructions. Protein samples were diluted in equal volume of 2×LDS sample buffer (Invitrogen) and supplemented with DTT to a final concentration of 200 mM (Sigma).
# Because autophagy increases lipid species which are mostly non-polar, they are not detected in the polar metabolite data. However, if autophagy is, in fact, activated after BET inhibition, the neurons would be smaller and possibly contain less protein. Indeed, total protein content is decreased by 13% as measured by the BCA assay after one week of BET inhibition (FIG. 13C). […] Moreover, BET inhibition causes an almost three-fold increase in autophagy as measured by the ratio of LC3II to LC3I, a common autophagic marker (FIG. 13D).
# Primary cortical neurons treated with IBET858 for 1 week have decreased glycolysis and amino acid metabolites (FIG. 21A). […] A summary of gene expression and metabolite data highlighting downregulation of solute carriers and metabolites that support anabolic and oxidative metabolic programs and an upregulation of neuroprotective metabolites and programs, such as autophagy (FIG. 21C). The glycolytic capacity of primary cortical neurons treated with acute (24 hour) or chronic (1 week) of IBET858 (FIGS. 21D-21H). IBET treated neurons was evaluated using the Seahorse assay. […] Further, the neurons display a decrease in glycolytic capacity as measured by the extracellular acidification rate (ECAR) (FIG. 21H). 1 week of IBET858 treatment increases autophagy as measured by an increase in the LC3 II/I ratio and a decrease in overall protein content by BCA assay (FIGS. 21I and 21J). CAG-RFP-EGFP-Map1lc3b mice expressing the LC3 protein together with RFP and a pH-dependent eGFP were used to evaluate the number of autophagic vesicles by immunofluorescence (FIGS. 21K and 21L). […] Frequency distribution of autophagic vesicles after 24 hours (left) or 1 week (right) treatment with IBET858 (FIG. 21L).
# C57bl/6 mice = assay: Kainic acid injection in the hippocampus, cCASP3 immunostaining; assay type: in vivo, mouse; conditions: 30 mg/kg i.p. daily 1 week, then kainic acid, 24 h
# Procedure: C57bl/6 mice were daily treated with IBET858 (30 mg/kg, i.p.) for 1 week, followed by stereotaxic injection of kainic acid in the hippocampus. Mice were perfused 24 hours after kainic acid injection and brains were immunostained for cCASP3 to identify dying cells.
compound,measurement,setting,value
CC(=O)N1c2ccc(-c3ccc(CN4CCCCC4)cc3)cc2[C@H](Nc2ccccc2)CC1C (stereo in doubt) [IBET858],immune response and cell activation pathway genes,primary microglia; 1 μM,suppresses
same,genes significantly down-regulated,"primary microglia; 1 μM IBET858, 4 hours",1245 genes
same,genes significantly down-regulated,"primary microglia; 1 μM IBET858, 12 hours",1175 genes
same,"microglia identity gene expression (Hexb, Fcrls, Fcer1g)","primary microglia; 1 μM, 1, 4 or 12 hours",unaffected
same,phagocytosis gene expression,"primary microglia; 1 μM, all time points",also unaffected
same,mitochondrial coupling efficiency,primary cortical neurons [1]; 24 h or 1 week IBET858,increased coupling efficiency
same,basal glycolysis (extracellular acidification rate),primary cortical neurons [1]; chronic BET inhibition,slightly decreased
same,basal mitochondrial respiration rates,primary cortical neurons [1]; chronic BET inhibition,significantly decreases
same,decrease in ATP production,primary cortical neurons [1]; chronic BET inhibition,50%
same,maximum glycolytic rate,primary cortical neurons [1]; chronic BET inhibition,significantly attenuated
same,maximum mitochondrial activity,primary cortical neurons [1]; chronic BET inhibition,also decreased
same,proton leak,primary cortical neurons [1]; chronic BET inhibition,lower
same,decrease in somatic area (Map2+ area),primary cortical neurons [2],25%
same,autophagic vesicles (CAG-RFP-EGFP-Map1lc3b neurons),primary cortical neurons [2]; 1 w,an increase in autophagic vesicles
same,"increase in autophagy, ratio of LC3II to LC3I",primary cortical neurons [2]; 1 week,three
same,"decrease in total protein content, BCA assay",primary cortical neurons [2]; one week of BET inhibition,13%
same,glutamate-induced toxicity in vivo (cCASP3 dying cells),C57bl/6 mice,protects neurons from glutamate-induced toxicity in vivo
